Where “and” joins values, the source holds several entries; their conditions need not be identical. Equal values may be shown once. Read-outs that look alike come from different tables or passages of the source.
Assays:
[1] = male SD rats, oral [^14C]-11c 5 mg/kg
Procedure: Following blood collection, each anesthetized animal was euthanized by CO2 inhalation and carcasses were submerged in a dry ice/hexane bath. Frozen carcasses were stored at approximately -20 °C until processed for QWBA. Duplicate aliquots of approximately 0.1 g whole blood were weighed into combustion boats for analysis by LSC. Duplicate aliquots of approximately 0.1 mL plasma were weighed into scintillation vials and mixed with an appropriate volume of scintillation cocktail for analysis by LSC. The frozen carcasses were individually set in a mold, submerged in 5% (w/v) low viscosity carboxymethylcellulose (CMC), and embedded by placing the stage (mold) in a dry ice/hexane bath. […] Sagittal, 30-µm thick sections of the CMC-embedded carcasses, including QC standards, and of the CMC-embedded calibration standards were sectioned using a Vibratome 9800 Cryomicrotome (Vibratome; St. Louis, MO) with the temperature maintained at approximately -20 °C. […] The IPs were exposed for approximately 4 days while stored at room temperature in a lead-shielded box to minimize background radiation. Digitized phosphor images (autoradioluminograms) were generated in a dark room with subdued lighting using a GE Healthcare Typhoon 7000 Phosphor Imager (Raytest GmbH; Berlin, Germany) and analyzed using AIDA software (Raytest GmbH).

[2] = test system: CDAHFD-fed C57BL/6 J mice; assay: CDAHFD mice (12 weeks): body weight and clinical signs; format: in vivo, mouse; set-up: Body weight: unit: g; conditions: for Body weight, Mean Diff.: Tukey; for Body weight, Mean (one-way ANOVA): mean of 13 weekly values
Description: C57BL/6 J male mice were purchased from the Japan SLC. Inc (Hamamatsu, Japan). Mice (5 weeks old) were fed Teklad Certitied Irradiated Global 18% protein rodent diet purchased from Dooyeol Biotech Co. Ltd (Seoul, South Korea) during the acclimation period. The liver fibrosis/inflammation-induced groups were CDAHFD-fed (A06071302, Research diet). […] All animal experiments complied with the relevant ethical regulations.

5HT2C (h) = 5HT2C (h) (Homo sapiens, UniProt P28335); assay: 5HT subtype antagonism assay (Eurofins Cerep): 5HT2C; format: cell-based
Chain of 5HT2C (h) (P28335 33-458): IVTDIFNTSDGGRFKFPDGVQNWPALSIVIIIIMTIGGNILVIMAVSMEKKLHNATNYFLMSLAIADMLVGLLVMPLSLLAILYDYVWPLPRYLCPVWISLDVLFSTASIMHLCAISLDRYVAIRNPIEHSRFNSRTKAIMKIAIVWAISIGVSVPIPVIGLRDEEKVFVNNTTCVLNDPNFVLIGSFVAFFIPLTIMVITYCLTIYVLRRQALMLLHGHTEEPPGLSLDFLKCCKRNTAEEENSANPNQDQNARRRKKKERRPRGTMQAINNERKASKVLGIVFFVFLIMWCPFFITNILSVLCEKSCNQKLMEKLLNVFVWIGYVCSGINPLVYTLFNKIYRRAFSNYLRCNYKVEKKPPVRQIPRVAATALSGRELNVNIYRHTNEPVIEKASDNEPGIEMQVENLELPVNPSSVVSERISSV

[3] = Pharmacokinetic study in rats; format: in vivo, Sprague-Dawley rats; conditions: rat
Procedure: The experimental protocol for this study was approved by the IACUC of KPC Co., Ltd. (No. KPC IACUC-P203046; Beagle dogs) or QuBEST BIO (No.QBIACUC-A20131). All relevant ethical guidelines were followed. Beagle male dogs (11 ~ 20 months old) were purchased from ORIENT BIO Inc. and were housed in the barrier animal facility of KPC Co., Ltd. under a regular light-dark cycle (12-hour light/12-hour dark) at 21.1–23.4°C with 55.3–72.2% humidity. Food (standard irradiated pelleted commercial laboratory diet, Cargill Agri Purina, 300 g/dog.day) and water were provided ad libitum. All study dogs were returned to the laboratory colony after the study without any euthanasia. Sprague-Dawley male rats (7 weeks old) were purchased from SAMTAKOBIOKOREA, Inc. and were housed in the barrier animal facility of Nonclinical Research Center, QuBEST BIO under a regular light-dark cycle (12-hour light/12-hour dark) at 19.7–22.7°C with 54.5–65.6% humidity. Food (standard irradiated pelleted commercial laboratory diet, Purina Rodent Chow, 38057) and water were provided ad libitum. All study rats were euthanized by CO2 gas upon study completion.
Blood samples were collected at the scheduled times up to 24 h post-dose (IV: 0.083, 0.25, 0.5, 1, 2, 4, 8, 12 and 24 h post-dose, PO: 0.25, 0.5, 1, 2, 4, 8, 12 and 24 h post-dose). Determination of compound 11c in plasma was performed by UHPLC-MS/MS. Pharmacokinetic parameters were calculated by noncompartmental analysis using Phoenix® WinNonlin® (Ver. 8.3‘, Certara).

[4] = male, Sprague-Dawley, plasma, 5 mg/kg, IV (5 mpk)

**Q.** What does the source list for `Cc1nc2n(c(=O)c1CCN1CCC(=C3c4ccc(Cl)cc4CCc4cccnc43)CC1)CCCC2O` (centres unmarked) [Compound 11c]?
**A.** AUC0-t (ng equiv./g) ([1]; Adrenal gland): 7210 ng equiv./g; Cmax (ng equiv./g) ([1]; Adrenal gland): 1510 ng equiv./g; Tissue: plasma ratio based on AUC0-t ([1]; Adrenal gland): 9.21; Tmax ([1]; Adrenal gland): 6 h; Cmax (ng equiv./g) ([1]; Brain, BQL = below the lower limit of quantitation 148 ng equiv./g): BQL; Cmax (ng equiv./g) ([1]; Brain, BQL = below the lower limit of quantitation 148 ng equiv./g, listed as [^14C]-compound 11c): below the lower limit of quantitation; AUC0-t (ng equiv./g) ([1]; Heart): 1800 ng equiv./g; Cmax (ng equiv./g) ([1]; Heart): 369 ng equiv./g; Tissue: plasma ratio based on AUC0-t ([1]; Heart): 2.30; Tmax ([1]; Heart): 6 h; AUC0-t (ng equiv./g) ([1]; Kidney): 7860 ng equiv./g; Cmax (ng equiv./g) ([1]; Kidney): 1840 ng equiv./g; Tissue: plasma ratio based on AUC0-t ([1]; Kidney): 10.0; Tmax ([1]; Kidney): 6 h; AUC0-t (ng equiv./g) ([1]; Large Intestine): 127000 ng equiv./g; Cmax (ng equiv./g) ([1]; Large Intestine): 9800 ng equiv./g; Tissue: plasma ratio based on AUC0-t ([1]; Large Intestine): 162; Tmax ([1]; Large Intestine): 6 h; AUC0-t (ng equiv./g) ([1]; Liver): 15400 ng equiv./g; Cmax (ng equiv./g) ([1]; Liver): 2920 ng equiv./g; Tissue: plasma ratio based on AUC0-t ([1]; Liver): 19.7; Tmax ([1]; Liver): 6 h; AUC0-t (ng equiv./g) ([1]; Lung): 4290 ng equiv./g; Cmax (ng equiv./g) ([1]; Lung): 941 ng equiv./g; Tissue: plasma ratio based on AUC0-t ([1]; Lung): 5.48; Tmax ([1]; Lung): 6 h; AUC0-t (ng equiv./g) ([1]; Pancreas): 15400 ng equiv./g; Cmax (ng equiv./g) ([1]; Pancreas): 4330 ng equiv./g; Tissue: plasma ratio based on AUC0-t ([1]; Pancreas): 19.7; Tmax ([1]; Pancreas): 6 h; AUC0-t (ng equiv./g) ([1]; Plasma): 783 ng equiv./g; Cmax (ng equiv./g) ([1]; Plasma): 225 ng equiv./g; Tissue: plasma ratio based on AUC0-t ([1]; Plasma): 1.00; Tmax ([1]; Plasma): 0.5 h; AUC0-t (ng equiv./g) ([1]; Small Intestine): 16600 ng equiv./g; Cmax (ng equiv./g) ([1]; Small Intestine): 45000 ng equiv./g; Tissue: plasma ratio based on AUC0-t ([1]; Small Intestine): 21.2; Tmax ([1]; Small Intestine): 0.25 h; AUC0-t (ng equiv./g) ([1]; Spleen): 9520 ng equiv./g; Cmax (ng equiv./g) ([1]; Spleen): 2290 ng equiv./g; Tissue: plasma ratio based on AUC0-t ([1]; Spleen): 12.2; Tmax ([1]; Spleen): 6 h; AUC0-t (ng equiv./g) ([1]; Stomach): 5130 ng equiv./g; Cmax (ng equiv./g) ([1]; Stomach): 3240 ng equiv./g; Tissue: plasma ratio based on AUC0-t ([1]; Stomach): 6.55; Tmax ([1]; Stomach): 0.25 h; AUC0-t (ng equiv./g) ([1]; Whole Blood): 589 ng equiv./g; Cmax (ng equiv./g) ([1]; Whole Blood): 158 ng equiv./g; Tissue: plasma ratio based on AUC0-t ([1]; Whole Blood): 0.75; Tmax ([1]; Whole Blood): 0.5 h; body weight changes among the CDAHFD groups ([2]; 12 weeks): not significantly different; clinical signs during the study period ([2]; CDAHFD mice, 5 and 10 mpk PO daily, 12 weeks): no abnormal clinical signs were observed; Body weight, Average ([2]; CDAHFD+11c 5mpk, week 0, 5 mice): 20.6 g; Body weight ([2]; CDAHFD+11c 5mpk, week 0, individual mouse, in g (unit assumed)): 21.7 and 20.6 and 20.4 and 20.7 and 19.7; Body weight, Average ([2]; CDAHFD+11c 5mpk, week 1, 5 mice): 20.6 g; Body weight ([2]; CDAHFD+11c 5mpk, week 1, individual mouse, in g (unit assumed)): 21.2 and 20.8 and 20.5 and 20.7 and 19.7; Body weight, Average ([2]; CDAHFD+11c 5mpk, week 2, 5 mice): 20.1 g; Body weight, Average ([2]; CDAHFD+11c 5mpk, week 3, 5 mice): 19.9 g; Body weight, Average ([2]; CDAHFD+11c 5mpk, week 4, 5 mice): 20.3 g; Body weight, Average ([2]; CDAHFD+11c 5mpk, week 5, 5 mice): 20.5 g; Body weight ([2]; CDAHFD+11c 5mpk, week 5, individual mouse, in g (unit assumed)): 20.8 and 21.2 and 20.5 and 20.2 and 19.9; Body weight, Average ([2]; CDAHFD+11c 5mpk, week 6, 5 mice): 20.8 g; Body weight ([2]; CDAHFD+11c 5mpk, week 6, individual mouse): 20.9 (2×) and 21.4 and 20.7 and 20.3; Body weight, Average ([2]; CDAHFD+11c 5mpk, week 7, 5 mice): 21.4 g; Body weight ([2]; CDAHFD+11c 5mpk, week 7, individual mouse): 22.0 (2×) and 21.7 and 21.0 and 20.4; Body weight, Average ([2]; CDAHFD+11c 5mpk, week 8, 5 mice): 21.6 g; Body weight ([2]; CDAHFD+11c 5mpk, week 8, individual mouse, in g (unit assumed)): 22.3 and 22.1 and 21.9 and 21.5 and 20.3; Body weight, Average ([2]; CDAHFD+11c 5mpk, week 9, 5 mice): 22.1 g; Body weight ([2]; CDAHFD+11c 5mpk, week 9, individual mouse): 23.0 and 22.4 (2×) and 21.7 and 20.9; Body weight, Average ([2]; CDAHFD+11c 5mpk, week 10, 5 mice): 22.2 g; Body weight ([2]; CDAHFD+11c 5mpk, week 10, individual mouse, in g (unit assumed)): 23.1 and 22.5 and 22.4 and 22.3 and 20.8; Body weight, Average ([2]; CDAHFD+11c 5mpk, week 11, 5 mice): 22.5 g; Body weight ([2]; CDAHFD+11c 5mpk, week 11, individual mouse, in g (unit assumed)): 23.6 and 23.2 and 22.9 and 22.3 and 20.7; Body weight, Average ([2]; CDAHFD+11c 5mpk, week 12, 5 mice): 22.5 g; Body weight ([2]; CDAHFD+11c 5mpk, week 12, individual mouse, in g (unit assumed)): 23.4 and 23.6 and 22.5 and 22.1 and 20.9; Body weight, Average ([2]; CDAHFD+11c 10mpk, week 0, 5 mice): 20.6 g; Body weight ([2]; CDAHFD+11c 10mpk, week 0, individual mouse): 21.3 (2×) and 20.1 and 20.3 and 20.0; Body weight, Average ([2]; CDAHFD+11c 10mpk, week 1, 5 mice): 20.4 g; Body weight ([2]; CDAHFD+11c 10mpk, week 1, individual mouse): 20.1 and 19.8 and 20.3 and 20.9 (2×); Body weight, Average ([2]; CDAHFD+11c 10mpk, week 2, 5 mice): 20.3 g; Body weight, Average ([2]; CDAHFD+11c 10mpk, week 3, 5 mice): 20.3 g; Body weight, Average ([2]; CDAHFD+11c 10mpk, week 4, 5 mice): 20.5 g; Body weight, Average ([2]; CDAHFD+11c 10mpk, week 5, 5 mice): 20.9 g; Body weight ([2]; CDAHFD+11c 10mpk, week 5, individual mouse): 20.9 (2×) and 20.6 and 22.0 and 20.3; Body weight, Average ([2]; CDAHFD+11c 10mpk, week 6, 5 mice): 21.2 g; Body weight ([2]; CDAHFD+11c 10mpk, week 6, individual mouse, in g (unit assumed)): 21.4 and 20.9 and 22.2 and 20.8 and 20.5; Body weight, Average ([2]; CDAHFD+11c 10mpk, week 7, 5 mice): 21.5 g; Body weight ([2]; CDAHFD+11c 10mpk, week 7, individual mouse, in g (unit assumed)): 21.9 and 21.0 and 22.3 and 21.1 and 21.2; Body weight, Average ([2]; CDAHFD+11c 10mpk, week 8, 5 mice): 21.8 g; Body weight ([2]; CDAHFD+11c 10mpk, week 8, individual mouse): 22.0 and 21.2 and 23.0 and 21.4 (2×); Body weight, Average ([2]; CDAHFD+11c 10mpk, week 9, 5 mice): 21.8 g; Body weight ([2]; CDAHFD+11c 10mpk, week 9, individual mouse, in g (unit assumed)): 22.6 and 21.2 and 22.8 and 21.5 and 21.1; Body weight, Average ([2]; CDAHFD+11c 10mpk, week 10, 5 mice): 22 g; Body weight ([2]; CDAHFD+11c 10mpk, week 10, individual mouse, in g (unit assumed)): 22.4 and 21.7 and 23.1 and 21.6 and 21.4; Body weight, Average ([2]; CDAHFD+11c 10mpk, week 11, 5 mice): 22.4 g; Body weight ([2]; CDAHFD+11c 10mpk, week 11, individual mouse): 22.7 and 22.1 (2×) and 23.5 and 21.8; Body weight, Average ([2]; CDAHFD+11c 10mpk, week 12, 5 mice): 22.5 g; Body weight ([2]; CDAHFD+11c 10mpk, week 12, individual mouse): 22.9 and 22.3 (2×) and 23.3 and 21.6; Body weight, Mean Diff. ([2]; Column A (Vehicle, no CDAHFD) vs. Column C (11c 5mpk), in g (unit assumed)): 3.52; Body weight, Mean Diff. ([2]; Column A (Vehicle, no CDAHFD) vs. Column D (11c 10mpk), in g (unit assumed)): 3.44; Body weight, Mean Diff. ([2]; Column B (CDAHFD+vehicle) vs. Column C (11c 5mpk), in g (unit assumed)): 0.1462; Body weight, Mean Diff. ([2]; Column B (CDAHFD+vehicle) vs. Column D (11c 10mpk), in g (unit assumed)): 0.06615; Body weight, Mean Diff. ([2]; Column C (11c 5mpk) vs. Column D (11c 10mpk)): -0.08; Body weight, Mean (one-way ANOVA) ([2]; Column C (CDAHFD+11c 5mpk), in g (unit assumed)): 21.17; Body weight, Mean (one-way ANOVA) ([2]; Column D (CDAHFD+11c 10mpk), in g (unit assumed)): 21.25; Selectivity 2 C: % inhibition (5HT2C (h); concentration not given): 103%; IC50 (5HT2C (h); read-out: Selectivity 2 C: IC50): 170 nM; AUC [3, 4]: 1550 ng·h/mL; clearance [3, 4]: 47 mL/min/kg; AUC ([3]; male, Sprague-Dawley, plasma, 5 mg/kg, PO (5 mpk)): 980 ng·h/mL; bioavailability ([3]; male, Sprague-Dawley, plasma, 5 mg/kg, PO (5 mpk), read-out: F (%)): 63%; AUC ([3]; male, Sprague-Dawley, plasma, 10 mg/kg, PO (10 mpk)): 2880 ng·h/mL; bioavailability ([3]; male, Sprague-Dawley, plasma, 10 mg/kg, PO (10 mpk), read-out: F (%)): 92.5%; half-life ([3]; male, Sprague-Dawley, plasma, iv, 5 mg/kg, IV (5 mpk)): 4.14 h; half-life ([3]; male, Sprague-Dawley, plasma, po, 5 mg/kg, PO (5 mpk)): 2.5 h; half-life ([3]; male, Sprague-Dawley, plasma, po, 10 mg/kg, PO (10 mpk)): 2.7 h; bioavailability ([3]; male, Sprague-Dawley, plasma, po, rats (summary statement), read-out: oral bioavailability): > 60%; V ([3]; IV (5 mpk)): 8.86 L/kg; T1/2 ([3]; IV (5 mpk), 5 mg/kg): 4.4 h
